5 compounds from PubChem BioAssay (NCI) can be followed below.

Where “and” joins values, the source holds several entries; their conditions need not be identical. Equal entries are not always repeated.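 Tested at 5 concentrations; 48 h exposure; 96-well plates; endpoints linearly interpolated, else capped at highest concentration. GI50 is the concentration that inhibits growth by half. TGI marks complete inhibition of growth.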 Bounds are passed on as bounds.

Holding throughout (assay): NCI anticancer screen, dose series, 48 h
Test [1] deals with UACC-62 melanoma.
For test [2], the system named is PC-3 prostate.
For test [3], the system named is NCI-H460 lung.
For test [4], the system named is 786-0 renal.
For test [5], the system named is K-562 leukemia.
Test [6] has as its system HS 578T breast.
For test [7], the system named is M14 melanoma.
Test [8] concerns LOX IMVI melanoma.
The subject of test [9] is U251 CNS.
Test [10] has as its system MDA-MB-435.

`COc1cc2nc(-c3cc(F)ccc3O)nc(N[C@@H]3CNC[C@H]3C(C)(C)O)c2cc1OC`: the GI50 in test [1] was 1.78 µM; in test [2] it was 2.09 µM; in test [3], 1.83 µM; in [4] it was 1.44 µM; in [5] it was 1.6 µM; in test [6], 1.72 µM. In addition, the GI50 in test [7] was 1.87 µM; in [8] it was 1.46 µM; in [9], 1.62 µM; in test [10], 1.65 µM. In addition, the TGI turned out to be 3.41 µM in test [1]; 5.7 µM in test [2]; 3.47 µM in test [3]; 2.92 µM in test [4]; 3.94 µM in test [5]; 5.74 µM in [6]. For the same compound, the TGI amounted to 3.47 µM in [7], 2.87 µM in [8], 3.06 µM in test [9] and 3.03 µM in [10].
As to `CC(C)(Br)C(=O)C(Br)Br`, the GI50 in test [1] was 5.85 µM; in [3], 5.75 µM; in test [4], 4.85 µM; in [5], 2.28 µM; in [7] it was 5.42 µM; in test [8], 3.09 µM. Besides, in [9], the GI50 was 9.65 µM. The TGI is 22.5 µM and 10.2 µM in [1]; 11 µM in test [2]; 34.4 µM and 11.4 µM in test [3]; 26.9 µM and 8.99 µM in test [4]; 19.9 µM in test [6]; 7.07 µM and 9.69 µM in [7]. In addition, the TGI in test [8] was 16.8 µM and 7.13 µM; in test [9], > 44.7 µM and 33.3 µM; in test [10], 9.98 µM.
For `Cc1cc(N(CCCNc2ccnc3cc(Cl)ccc23)Cc2ccco2)nc(N2CCN(C)CC2)n1`, the GI50 was 1.99 µM in test [1]; 4.12 µM in test [2]; 3.12 µM in test [3]; 1.83 µM in test [4]; 2.07 µM in test [5]; 2.43 µM in [6]. For the same compound, the GI50 was 1.85 µM in test [7], 1.69 µM in test [8], 2.67 µM in test [9] and 1.69 µM in test [10]. Further, the TGI in test [1] is 3.74 µM; in test [2] it was 17.3 µM; in test [3], 11.4 µM; in test [4] it was 3.63 µM; in test [5] it was 10.4 µM; in [6], 7.85 µM. The TGI in test [7] amounted to 3.44 µM; in test [8], 3.53 µM; in [9], 6.92 µM; in [10], 3.23 µM.
Consider `c1ccc(CCc2cccnc2)nc1`, for which the TGI in [1], in test [2], in [3], in [4], in test [5] and in test [6] was greater than 100 µM in each case. The TGI in test [7], in [8], in [9] and in test [10] was greater than 100 µM in each case.
In the case of `Cc1cc(C)nc(SC2=C(Nc3cc(Cl)ccc3O)C(=O)N(Cc3ccccc3)C2=O)n1`, the GI50 in test [1] was 16.2 µM; in test [2] it was 19.9 µM; in test [3] it was 56.6 µM; in [4], 14.7 µM; in test [5] it was 5.53 µM; in [6] it was 28.1 µM. Further, the GI50 in [7] is 48.4 µM; in [8] it was 27.2 µM; in [9] it was 38.6 µM; in [10] it was 62.2 µM. In addition, the TGI in [1] was 41.8 µM; in test [2] it was 86.4 µM; in [3], greater than 160 µM; in test [4], 85.2 µM; in [5], greater than 160 µM; in [6], 87.5 µM. Moreover, the TGI is greater than 160 µM in test [7], 89.4 µM in test [8], greater than 160 µM in test [9] and greater than 160 µM in test [10].
